Laboratory results taken from paper PMC8228365, “Degradation Products of Tryptophan in Cell Culture Media: Contribution to Color and Toxicity” (International Journal of Molecular Sciences, 2021).
Read-outs that look alike come from different tables or passages of the source.

Columns and labels:
[1] = system: CHOK1 GS cells; assay: CellTiter-Glo cytotoxicity assay in CHOK1 GS cell line; type: cell-based, Chinese hamster; settings: Cricetulus griseus
Protocol: To assay the potential toxicity induced in the CHO cell culture by the Trp degradation products found in this study, a cytotoxicity assay CellTiter-Glo® Luminescent Cell Viability Assay (Cat #G7572, Promega, Madison, WI, USA) was used, following the manufacturer’s instructions. Briefly, the cells were seeded with 25,000 viable cells per cavity of a 96-well opaque white cell culture plate (Thermo Fisher, Waltham, MA, USA) in 80 µL of a pre-warmed medium. […] A DMSO control was added in the same concentration range as the tryptophan degradation compounds were diluted.

[2] = system: CHOK1 cells; assay: CellTiter-Glo cytotoxicity assay in CHOK1 cell line; type: cell-based, Chinese hamster; settings: Cricetulus griseus
Protocol: (§1) To assay the potential toxicity induced in the CHO cell culture by the Trp degradation products found in this study, a cytotoxicity assay CellTiter-Glo® Luminescent Cell Viability Assay (Cat #G7572, Promega, Madison, WI, USA) was used, following the manufacturer’s instructions. Briefly, the cells were seeded with 25,000 viable cells per cavity of a 96-well opaque white cell culture plate (Thermo Fisher, Waltham, MA, USA) in 80 µL of a pre-warmed medium. Tryptophan degradation compounds were added in triplicates to the cells, ranging from 1 mM to 46 nM. A DMSO control was added in the same concentration range as the tryptophan degradation compounds were diluted. The dose response curves were fitted with a 4PL model by GraphPad Prism v.7 (GraphPad Software, San Diego, CA, USA) after luminescence readout with an EnVision 2104 Multilabel Reader (Perkin Elmer, Waltham, MA, USA).

[3] = system: CHOZN 10 cells; assay: CellTiter-Glo cytotoxicity assay in CHOZN 10 cell line; type: cell-based, Chinese hamster; settings: Cricetulus griseus, read-out: [GI50] CHOZN 10
Protocol: as §1

[4] = system: CHOZN 6 cells; assay: CellTiter-Glo cytotoxicity assay in CHOZN 6 cell line; type: cell-based, Chinese hamster; settings: Cricetulus griseus, read-out: [GI50] CHOZN 6
Protocol: as §1

[5] = Color measurement (ΔE*) of standards spiked into water; type: physicochemical; settings: theoretical 500 µM, 1% DMSO, ΔE* > 1 deemed significant
Protocol: (§2) Compounds were dissolved in DMSO at 50 mM and then spiked into the solutions to achieve a final compound concentration of 500µM. Some of the tested compounds formed a precipitate immediately upon spiking of the DMSO solution. As the precipitates in solution can interfere with the absorption measurement, each sample was centrifuged prior to taking absorption measurements, meaning that the final concentrations were not all at 500 µM. […] In stability experiments, eight of these nine compounds (all except 46) were present in at least one condition in the degraded water samples, and four of these nine compounds (28, 31, 38, and 46) were present in the degraded feed.
(§3) Absorbance measurements were taken in the range of 380 nm to 780 nm (20 nm steps) of 100 µL of the samples in four technical replicates (Envision, Perkin Elmer, Waltham, MA, USA). From the absorbance values, the change in color was calculated using L*a*b* and ΔE* values according to DIN 5033-3 and DIN 6174 norms. The CIE 1931 standard observer (2°) and the D65 illuminant were selected.
(§4) Chemical standards were prepared as 50 mM stocks in DMSO and then spiked into the aqueous solutions (either water or feed) to achieve a theoretical compound concentration of 500 µM (1% DMSO). The solutions were centrifuged, and the absorbance measurements of these solutions was measured and converted to ΔE* values as described above. The control condition was pure DMSO (1% v/v).

[6] = Color measurement (ΔE*) of standards spiked into feed; type: physicochemical; settings: theoretical 500 µM, 1% DMSO, ΔE* > 1 deemed significant
Protocol: as §2, §3, §4

[7] = system: CHO cells; assay: CHO cell toxicity summarised across the four CHO cell lines; type: cell-based, Chinese hamster; settings: Cricetulus griseus; across all four CHO cell lines; read-out: GI50 across all cell lines
Protocol: as §1

[8] = system: cancer cell lines; design: method as in PMID 22047643; settings: cited from earlier work
[9] = system: CHO cells; settings: cited from earlier work
[10] = Degradation of tryptophan in water under stressed conditions; type: physicochemical; settings: 10 mM Trp in water pH 7, 70 °C, after 24 days
Protocol: For the Trp solutions, 10 mM Trp solutions were prepared in water with a pH adjustment to pH 7.0 ± 0.3 using NaOH(aq.) and sterile filtered with Steriflip® filter units (Merck, Darmstadt, Germany). For H2O2 exposure testing, the solutions were spiked with hydrogen peroxide (30%, 8.82 M) to 0, 10, 25, 50, or 100 mM, and stored for 4h at RT (~19–23 °C), light-protected. For the UV exposure effects, the solutions were stored for 4 h under a UV-lamp set to an intensity of 540 V (UV-A, -B and -C radiation). Samples tested for temperature effects were stored light-protected for 24 days at 4 °C, room temperature (RT, i.e., ~19–23 °C), 37 °C, or 70 °C. Feed solutions were sterile-filtered as above and stored for 98 days at 4 °C, RT (~19–23 °C) or 37 °C. The samples were either stored light-protected or exposed to laboratory fluorescent lighting with partial exposure to glass-filtered daylight (light-exposed). For testing the a-ketoglutaric acid effects in feed, dry powder feed was reconstituted with a-ketoglutaric acid, pH adjusted to 7.0 ± 0.3 with NaOH (aq.), filtered as above, and stored light-protected at RT (~19–23 °C) or 37 °C for 98 days. Ammonia was quantified using Cedex Bio HT (Roche, Mannheim, Germany). Aliquots were frozen at −20 °C for subsequent amino acid analysis and LC-MS.
Amino acid analysis was performed using a pre-column derivatization using the AccQ Tag® Ultra Reagent kit. […]

[11] = CHO-K1, CHOK1 GS cell line, 1 mM to 46 nM, 4PL fit, read-out: [GI50] CHOK1 GS
[12] = CHO-K1, CHOK1 cell line, 1 mM to 46 nM, 4PL fit, read-out: [GI50] CHOK1
[13] = CHOZN 10 cell line, 1 mM to 46 nM, 4PL fit
[14] = CHOZN 6 cell line, 1 mM to 46 nM, 4PL fit
[15] = CHO-K1, read-out: [GI50] CHOK1 GS

## Nc1ccccc1C(=O)CC(N)C(=O)O (centres unmarked) [Compound 1, Kynurenine]
[1]; [11]
  GI50: > 1000 µM

## NC(CC(=O)c1ccccc1NC=O)C(=O)O (centres unmarked) [Compound 2, N-Formylkynurenine]
[1]; [11]
  GI50: > 1000 µM

## NC(CC1C(=O)Nc2ccccc21)C(=O)O (centres unmarked) [Compound 3, 2-amino-3-(2-oxo-2,3-dihydro-1h-indol-3-yl)propanic acid (Oia)]
[1]; [11]
  GI50: > 1000 µM

## NC(CC1(O)C(=O)Nc2ccccc21)C(=O)O [Compound 4, 3-(3-Hydroxy-2-oxo-2,3-dihydro-1H-indol-3-yl)-L-alanine (diOia)]
[1]; [11]
  GI50: > 1000 µM

## O=C(O)c1nccc2c1[nH]c1ccccc12 [Compound 5, 9H-Pyrido[3,4-b]indole-1-carboxylic acid]
[2]; [12]
  GI50: 158 µM
[3]; [13]
  GI50: 75.5 µM
[4]; [14]
  GI50: 76.7 µM
[1]; [11]
  GI50: 118 µM
[5]
  Color change as measured by ΔE* in water: significant color change
[6]
  Color change as measured by ΔE* in feed: significant color change

## O=C(O)C1CC2(O)c3ccccc3NC2N1 (centres unmarked) [Compound 6, 1,2,3,3a,8,8a-Hexahydro-3a-hydroxypyrrolo[2,3-b]indole-2-carboxylic acid (PIC)]
[1]; [11]
  GI50: > 1000 µM

## c1ccc2ncccc2c1 [Compound 8, Quinoline]
[1]; [15]
  GI50: > 1000 µM

## NCCc1c(O)[nH]c2ccccc12 [Compound 9]
[1]; [11]
  GI50: > 1000 µM

## OC12CCNC1Nc1ccccc12 (centres unmarked) [Compound 10]
[1]; [11]
  GI50: > 1000 µM

## NCCc1c[nH]c2ccccc12 [Compound 11, Tryptamine]
[1]; [15]
  GI50: > 1000 µM

## O=CCc1c[nH]c2ccccc12 [Compound 12, Indole-3-acetaldehyde]
[2]; [12]
  GI50: 116 µM
[3]; [13]
  GI50: 92.3 µM
[4]; [14]
  GI50: 54.5 µM
[1]; [11]
  GI50: 64.5 µM

## N[C@@H](Cc1c(Cc2c[nH]c3ccccc23)[nH]c2ccccc12)C(=O)O [Compound 14, 2-(3-Indolylmethyl)-L-tryptophan]
[1]; [11]
  GI50: > 1000 µM

## O=C(O)c1cc2c([nH]c3ccccc32)c(-c2ccccc2)n1 [Compound 16]
[2]; [12]
  GI50: 74.9 µM
[3]; [13]
  GI50: 57.6 µM
[4]; [14]
  GI50: 88.5 µM
[1]; [11]
  GI50: 76.6 µM
[5]
  Color change as measured by ΔE* in water: significant color change

## O=Cc1c[nH]c2ccccc12 [Compound 18, Indole-3-carboxaldehyde]
[2]; [12]
  GI50: 226 µM
[7]
  GI50: > 226 µM
[3]; [13]
  GI50: 258 µM
[4]; [14]
  GI50: 236 µM
[1]; [11]
  GI50: 295 µM

## O=C1Cc2ccccc2N1 [Compound 19, 2-Oxindole]
[1]; [11]
  GI50: > 1000 µM

## Oc1ccnc2ccccc12 [Compound 20, 4-Hydroxyquinoline]
[1]; [15]
  GI50: > 1000 µM

## O=C(O)c1ccnc2ccccc12 [Compound 21, 4-Quinolinecarboxylic acid]
[1]; [11]
  GI50: > 1000 µM

## CC1NC(C(=O)O)Cc2c1[nH]c1ccccc21 (stereo not drawn) [Compound 23, 1-Methyl-2,3,4,9-tetrahydro-1H-beta-carboline-3-carboxylic acid]
[1]; [11]
  GI50: > 1000 µM

## O=C(O)C1Cc2c([nH]c3ccccc23)C=N1 (centres unmarked) [Compound 24]
[2]; [12]
  GI50: 312 µM
[7]
  GI50: > 226 µM
[3]; [13]
  GI50: 306 µM
[4]; [14]
  GI50: 314 µM
[1]; [11]
  GI50: 343 µM
[5]
  Color change as measured by ΔE* in water: significant color change
[6]
  Color change as measured by ΔE* in feed: significant color change

## CC1NC(C(=O)O)CC12C(=O)Nc1ccccc12 (centres unmarked) [Compound 25]
[1]; [11]
  GI50: > 1000 µM

## c1ccc2c(c1)[nH]c1cnccc12 [Compound 27, Norharmane]
[2]; CHO-K1, read-out: [GI50] CHOK1
  GI50: 74.8 µM
[3]
  GI50: 64.5 µM
[4]
  GI50: 98.5 µM
[1]; [15]
  GI50: 127 µM

## Cc1nccc2c1[nH]c1ccccc12 [Compound 28, Harmane]
[2]; CHO-K1, read-out: [GI50] CHOK1
  GI50: 74.9 µM
[3]
  GI50: 77.3 µM
[4]
  GI50: 65.5 µM
[1]; [15]
  GI50: 170 µM
[6]
  Color change as measured by ΔE* in feed: significant color change

## OCc1nccc2c1[nH]c1ccccc12 [Compound 29]
[2]; [12]
  GI50: 389 µM
[3]; [13]
  GI50: 347 µM
[4]; [14]
  GI50: > 1000 µM
[1]; [11]
  GI50: 157 µM

## O=C(O)c1cc2c([nH]c3ccccc32)c(C(=O)c2c[nH]c3ccccc23)n1 [Compound 31, 1-(1H-Indol-3-ylcarbonyl)-9H-pyrido[3,4-b]indole-3-carboxylic acid]
[2]; [12]
  GI50: 21.6 µM
[7]
  GI50: 10 to 22 µM
[3]; [13]
  GI50: 14.4 µM
[4]; [14]
  GI50: 13 µM
[1]; [11]
  GI50: 34.6 µM
[8]
  toxicity against some cancer cell lines: demonstrated toxicity against some cancer cell lines
[6]
  Color change as measured by ΔE* in feed: significant color change

## O=C(c1c[nH]c2ccccc12)c1nccc2c1[nH]c1ccccc12 [Compound 32, 1H-Indol-3-yl-9H-pyrido[3,4-b]indol-1-ylmethanone]
[1]; [11]
  GI50: > 1000 µM
[8]
  toxicity against some cancer cell lines: demonstrated toxicity against some cancer cell lines

## O=C(O)c1cc2c([nH]c3ccccc32)c(-c2ccnc3ccccc23)n1 [Compound 38]
[2]; [12]
  GI50: 124 µM
[3]; [13]
  GI50: 114 µM
[4]; [14]
  GI50: 98.9 µM
[1]; [11]
  GI50: 118 µM
[5]
  Color change as measured by ΔE* in water: significant color change

## Cc1ncc(CO)c(C2NC(C(=O)O)Cc3c2[nH]c2ccccc32)c1O (centres unmarked) [Compound 42]
[1]; [11]
  GI50: > 1000 µM

## Cc1nc(C(=O)O)cc2c1[nH]c1ccccc12 [Compound 45]
[1]; [11]
  GI50: > 1000 µM

## NC(=O)Cc1c[nH]c2ccccc12 [Compound 47, 3-Indoleacetamide]
[1]; [11]
  GI50: > 1000 µM

## CC(C)CC1NC(C(=O)O)Cc2c1[nH]c1ccccc21 (centres unmarked) [Compound 56, 2,3,4,9-Tetrahydro-1-(2-methylpropyl)-1H-pyrido[3,4-b]indole-3-carboxylic acid]
[1]; [11]
  GI50: > 1000 µM

## CC(=O)c1nccc2c1[nH]c1ccccc12 [Compound 62, 1-Acetyl-β-carboline]
[1]; [11]
  GI50: > 1000 µM

## O=C(O)CCC(=O)O [Compound 66, succinic acid]
[9]
  toxicity to CHO cells: not toxic to CHO cells

## N[C@@H](Cc1c[nH]c2ccccc12)C(=O)O [Trp, L-Tryptophan]
[10]
  Trp total loss: 42%

## O=C(O)CCC(=O)C(=O)O [aKG, a-Ketoglutaric acid]
[9]; up to 50 mM
  effect on the CHO cell culture: no detrimental effect
